Measured values from patent publication US8461193B2, “Substituted pyrrolo-pyrazole derivatives active as kinase inhibitors” (Nerviano Medical Sciences S.R.L., priority 2005, dated 2013).
Where two headings read alike, the source gives them in different places.

Columns and labels:
IGF1R [1] = molecular target: T1, IGF1R (Homo sapiens, UniProt P08069); assay: Biochemical assay for inhibitors of IGF-1R kinase activity (trans-phosphorylation assay, robotized Dowex assay); set-up: amino acid residues 960-1367 of precursor protein; made in house; host or cells: H5 insect cells (baculovirus; virus made in Sf21 cells)
Description: ID NO: 2). […] The inhibitory activity of putative kinase inhibitors and the potency of selected compounds were determined using a trans-phosphorylation assay.
Target sequence in this assay (P08069 960-1367): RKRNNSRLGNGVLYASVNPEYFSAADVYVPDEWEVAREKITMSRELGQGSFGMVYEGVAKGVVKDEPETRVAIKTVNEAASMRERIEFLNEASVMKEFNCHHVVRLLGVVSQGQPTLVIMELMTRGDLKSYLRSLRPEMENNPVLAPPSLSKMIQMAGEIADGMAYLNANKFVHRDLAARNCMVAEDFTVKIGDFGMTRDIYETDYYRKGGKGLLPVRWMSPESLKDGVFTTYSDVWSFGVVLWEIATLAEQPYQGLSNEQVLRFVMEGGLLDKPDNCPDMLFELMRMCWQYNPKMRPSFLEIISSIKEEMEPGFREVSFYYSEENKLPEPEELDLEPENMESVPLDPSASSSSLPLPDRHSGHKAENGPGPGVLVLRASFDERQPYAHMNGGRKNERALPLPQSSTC

IGF1R [2] = molecular target: T1, IGF1R; assay: Western blot analysis of receptor phosphorylation following stimulation with IGF-1 in MCF-7 human breast cancer cells; format: cell-based; set-up: endogenous in cells; host or cells: MCF-7 (ATCC# HTB-22); settings: starved MCF-7 cells, increasing concentrations of compound prior to 10 nM IGF1
Description: Cell-Based Assays for Inhibitors of IGF-1R Kinase Activity Western Blot Analysis of Receptor Phosphorylation Following Stimulation with IGF-1 in MCF-7 Human Breast Cancer Cells
MCF-7 cells (ATCC# HTB-22) were seeded in 12-well tissue culture plates at 2×10^5 cells/well in E-MEM medium (MEM+Earle's BSS+2 mM glutamine+0.1 mM non-essential amino acids)+10% FCS, and incubated overnight at 37° C., 5% CO2, 100% relative humidity. Cells were then starved by replacing E-MEM+10% FCS with E-MEM+0.1% BSA, and incubating overnight. After this incubation, wells were treated with desired concentrations of compound for 1 hour at 37° C., and were then stimulated with 10 nM recombinant human IGF-1 (Invitrogen, Carlsbad, Calif., USA) for 10 minutes at 37° C. […] Cell lysates were cleared by centrifugation at 10,000×g for 5 minutes, and 10 microg/lane of cleared lysate protein were run on NuPAGE gels (NuPAGE 4-12% 10-lane Bis-Tris gels, Invitrogen) with MOPS running buffer, then transferred onto Hybond-ECL nitrocellulose filters (Amersham Biosciences, Little Chalfont, Buckinghamshire, UK) using Mini PROTEAN II chambers (Bio-Rad Laboratories, Hercules, Calif., USA). […] In either case, filters were then washed for 30 minutes with several changes of TBS+0.15% Tween 20, and incubated for 1 hour in washing buffer containing 1/5000 dilution of horseradish peroxidase conjugated anti-rabbit IgG (Amersham, product #NA934), then were washed again and developed using the ECL chemiluminescence system (Amersham) according to manufacturer's recommendations. Unless otherwise stated, reagents used were from Sigma-Aldrich, St. Louis, Mo., USA.
Target sequence in this assay (P08069 31-1367): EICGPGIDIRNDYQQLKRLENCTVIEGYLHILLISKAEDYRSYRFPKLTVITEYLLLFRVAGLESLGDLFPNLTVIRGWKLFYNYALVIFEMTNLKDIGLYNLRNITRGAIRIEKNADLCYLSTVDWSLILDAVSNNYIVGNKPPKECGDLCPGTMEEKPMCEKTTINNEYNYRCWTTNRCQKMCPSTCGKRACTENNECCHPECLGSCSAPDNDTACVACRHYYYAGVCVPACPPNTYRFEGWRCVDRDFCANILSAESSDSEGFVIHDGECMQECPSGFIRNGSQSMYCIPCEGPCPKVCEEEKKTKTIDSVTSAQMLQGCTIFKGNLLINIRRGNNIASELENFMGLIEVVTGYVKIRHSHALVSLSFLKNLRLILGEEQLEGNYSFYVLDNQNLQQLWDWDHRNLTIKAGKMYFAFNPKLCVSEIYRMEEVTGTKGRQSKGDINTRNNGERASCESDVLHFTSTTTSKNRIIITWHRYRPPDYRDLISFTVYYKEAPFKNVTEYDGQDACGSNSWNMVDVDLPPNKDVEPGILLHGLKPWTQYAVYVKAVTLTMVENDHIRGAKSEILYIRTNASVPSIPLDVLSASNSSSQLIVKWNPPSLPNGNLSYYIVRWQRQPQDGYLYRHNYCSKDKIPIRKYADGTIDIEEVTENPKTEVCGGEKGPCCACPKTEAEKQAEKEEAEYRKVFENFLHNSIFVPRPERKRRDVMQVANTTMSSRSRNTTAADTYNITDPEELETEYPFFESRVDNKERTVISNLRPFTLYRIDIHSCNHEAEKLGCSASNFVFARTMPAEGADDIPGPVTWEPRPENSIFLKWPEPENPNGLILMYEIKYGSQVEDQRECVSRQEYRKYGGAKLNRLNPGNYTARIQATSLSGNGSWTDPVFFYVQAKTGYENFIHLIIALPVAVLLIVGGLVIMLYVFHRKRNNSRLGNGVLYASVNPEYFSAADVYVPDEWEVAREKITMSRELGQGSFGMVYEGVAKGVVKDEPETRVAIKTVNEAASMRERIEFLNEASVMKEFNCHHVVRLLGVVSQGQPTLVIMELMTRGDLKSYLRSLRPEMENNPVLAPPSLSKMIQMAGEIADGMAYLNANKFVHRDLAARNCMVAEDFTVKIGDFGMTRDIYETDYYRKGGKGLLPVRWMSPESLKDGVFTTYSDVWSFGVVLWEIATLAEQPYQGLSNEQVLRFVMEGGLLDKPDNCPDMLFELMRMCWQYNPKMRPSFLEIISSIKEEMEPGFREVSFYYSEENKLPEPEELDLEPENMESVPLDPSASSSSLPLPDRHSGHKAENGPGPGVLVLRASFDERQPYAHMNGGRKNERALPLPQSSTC

[3] = tested on: IGF1-induced S6 phosphorylation; assay: Growth factor induced S6 ribosomal protein phosphorylation in primary human fibroblasts; format: cell-based; settings: normal human dermal fibroblasts (NHDF), stimulated with 10 nM IGF-1; read-out: Inhibition of IGF1-induced S6 phosphorylation IC50
Description: Growth Factor Induced S6 Ribosomal Protein Phosphorylation in Primary Human Fibroblasts.
Phosphorylation of S6 ribosomal protein in response to growth factor stimulation of normal human dermal fibroblasts (NHDF) was used to assess compound potency in inhibiting IGF-1 induced signal transduction in cells, and selectivity towards EGF and PDGF stimulus. NHDF cells obtained from PromoCell (Heidelberg, Germany), were maintained at 37° C. in a humidified atmosphere with 5% CO2 in complete Fibroblast Growth Medium (PromoCell). For assay, NHDF were seeded in 384-well tissue culture plates (clear- and flat-bottomed black plates; Matrix Technologies Inc., Hudson, N.H., USA) at a density of 5000 cells/well in serum-free medium containing 0.1% bovine serum albumin (BSA) and incubated for 5 days. Starved cells were treated for 1 hour with desired doses of compounds and then stimulated for a further 2 hours with either 10 nM IGF-1 (Invitrogen Corp., CA, USA), 10 nM EGF (Gibco BRL, USA) or 1 nM PDGF-B/B (Roche Diagnostics GmbH, Germany). Cells were then fixed in PBS/3.7% paraformaldehyde for 20 minutes at room temperature, washed ×2 with PBS, and permeabilized with PBS/0.3% Triton X-100 for 15 minutes. Wells were then saturated with PBS/1% non-fat dry milk (Bio-Rad Laboratories, Hercules, Calif., USA) for 1 hour, and then probed for 1 hour at 37° C. with anti-phospho-S6 (Ser 235/236) antibody (Cell Signaling Technology, Beverly, Mass., USA, cat. #2211) at 1/200 dilution in PBS/1% milk/0.3% Tween 20. […] Fluorescence images in the DAPI and Cy5™ channels were automatically acquired, stored and analysed using a Cellomics ArrayScan™ IV instrument (Cellomics, Pittsburgh, USA); the Cellomics Cytotoxicity Algorithm was used to quantify cytoplasmic fluorescence associated with phospho-S6 (Cy5™ signal parameter: “Mean Lyso Mass-pH”) for each cell in 10 fields/well, and eventually expressed as a mean population value. […]

[4] = 6 nM enzyme, 6 microM ATP, 10 microM peptide substrate, read-out: IGF1R IC50 (μM) Biochemical assay

Row | Structure (SMILES) | IC50 (IGF1R [1]; [4]) | inhibition of IGF1-induced IGF1R auto-phosphorylation (pIGF1R band, FIG. 1) (IGF1R [2]) | IC50 [3] | IC50 (IGF1R [1])
1 | CN1CCN(c2ccc(C(=O)Nc3n[nH]c4c3CN(S(=O)(=O)c3cc(F)cc(F)c3)C4(C)C)c(NC(=O)[C@@H]3CCCO3)c2)CC1 [Compound 1, (S)-Tetrahydro-furan-2-carboxylic acid [2-[5-(3,5-difluoro-benzenesulfonyl)-6,6-dimethyl-1,4,5,6-tetrahydro-pyrrolo[3,4-c]pyrazol-3-ylcarbamoyl]-5-(4-methyl-piperazin-1-yl)-phenyl]-amide] | 0.17 µM | inhibition of IGF1-induced IGF1R auto-phosphorylation | 740 nM | 
2 | CN1CCN(c2ccc(C(=O)Nc3n[nH]c4c3CN(S(=O)(=O)c3cc(F)cc(F)c3)C4(C)C)c(NC(=O)c3cc[nH]c3)c2)CC1 [Compound 11, 1H-pyrrole-3-carboxylic acid [2-[5-(3,5-difluoro-benzenesulfonyl)-6,6-dimethyl-1,4,5,6-tetrahydro-pyrrolo[3,4-c]pyrazol-3-ylcarbamoyl]-5-(4-methyl-piperazin-1-yl)-phenyl]-amide] |  | inhibition of IGF1-induced IGF1R auto-phosphorylation | 300 nM | 0.09 µM
3 | CC(C)CNc1cc(N2CCN(C)CC2)ccc1C(=O)Nc1n[nH]c2c1CN(S(=O)(=O)c1cc(F)cc(F)c1)C2(C)C.Cl [Compound 90, N-[5-(3,5-Difluoro-benzenesulfonyl)-6,6-dimethyl-1,4,5,6-tetrahydro-pyrrolo[3,4-c]pyrazol-3-yl]-2-isobutylamino-4-(4-methyl-piperazin-1-yl)-benzamide hydrochloride] | 0.46 µM | inhibition of IGF1-induced IGF1R auto-phosphorylation | 5300 nM | 
